{
  "source": "patent US20240300881A1",
  "about": "“PROCESS FOR PREPARATION OF LITHIUM L-THREONATE AND USE THEREOF” (XIXIOXOME BIOTHERAPEUTICS, priority 2023, published 2024)",
  "key": {"AAD": {"tested_on": "AAD", "settings": "low-dose; cited from earlier work"}, "[1]": {"assay": "precipitation of lithium hydroxide from solution at different pH", "assay_type": "physicochemical", "from_the_text": "L-threonic acid was selected as the ligand for lithium ion, because L-threonic acid can accelerate the absorption of the ion."}, "[2]": {"settings": "stability in high thermal condition"}, "schizoaffective disorder": {"tested_on": "schizoaffective disorder", "settings": "cited from earlier work"}},
  "data": [
    {"compound": "O=C([O-])[O-].[Li+].[Li+]", "note": "[lithium carbonate]", "values": [
      {"measurement": "efficacy in treating agitation", "setting": "AAD", "result": "not efficacious"},
      {"measurement": "global clinical improvement", "setting": "AAD", "result": "associated with global clinical improvement"}
    ]},
    {"compound": "O=C([O-])[C@H](O)[C@@H](O)CO.[Li+]", "note": "[lithium L-threonate]", "values": [
      {"measurement": "precipitate of lithium hydroxide", "setting": "[1]; basic condition", "result": "no precipitate of lithium hydroxide"},
      {"measurement": "precipitate of lithium hydroxide", "setting": "[1]; small intestine (pH˜7)", "result": "no precipitate of lithium hydroxide"},
      {"measurement": "temperature of decomposition", "setting": "[2]", "result": "> 300", "unit": "°C"},
      {"measurement": "dissolution in alcohol and ether", "setting": "alcohol and ether", "result": "no dissolution in alcohol and ether"},
      {"measurement": "dissolution in water", "setting": "water", "result": "dissolution in water"}
    ]},
    {"compound": "NC(=O)N1c2ccccc2C=Cc2ccccc21", "note": "[carbamazepine]", "values": [
      {"measurement": "prophylactic efficacy in maintenance treatment", "setting": "schizoaffective disorder", "result": "equipotent alternatives"}
    ]}
  ]
}
